Experimental data from paper PMC12288609 (Bioorganic & medicinal chemistry letters, 2024).
Read-outs that look alike come from different tables or passages of the source. Marks after values point to notes of the source that are not given here.

Key:
SALL4 = SALL4 (Homo sapiens, UniProt Q96SW2+Q9UJQ4); assay: SALL4 degradation in HuH6 cells, Western blot; details: 16 h; for SALL4 degradation (Western blot, in words): 1.0 μM (0.1 μM in Fig. S2); for Neosubstrate degradation (%) SALL4: 1.0 μM, Western blot densitometry normalized to DMSO
IKZF3 = IKZF3 (Homo sapiens, UniProt Q96SW2+Q9UKT9); assay: IKZF3 degradation in MM.1S cells, Western blot; details: 16 h; for IKZF3 degradation (Western blot, in words): 1.0 μM (0.1 μM in Fig. S2); for Neosubstrate degradation (%) IKZF3: 1.0 μM, Western blot densitometry normalized to DMSO
IKZF3-GFP fusion protein = IKZF3-GFP fusion protein (Homo sapiens, UniProt Q96SW2+Q9UKT9); details: MM.1S cells, 16 h, 0.1 μM, 1.0 μM and 10 μM
Description: This method distinguished direct effects on protein degradation from effects that regulate transcriptional expression.
In brief, the plasmid comprised the IMiD-binding zinc finger 2 (ZF2) of IKZF3 fused to eGFP with mCherry in vector backbone. MM.1S cells were lentivirally transduced with the IKZF3-ZF2 reporter and treated with respective compounds for 16 hours. Flow cytometry was performed for the quantification of eGFP and mCherry mean fluorescence intensity. The eGFP/mCherry ratio was indicative of IKZF3-ZF2 degradation levels. Compound-treated samples were normalized to DMSO-treated samples. Data was obtained with biological replicates (n=3) and representmean± SD.
The Artichoke reporter assay was performed as described.[14] Briefly, HEK293T cells were transfected and virus was harvested. MM1.S cells were transduced and treated with the test compounds. Cells were measured on a Cytoflex (Beckman Coulter) flow cytometer. Live single cells expressing mCherry were gated for FITC and histograms displaying counts were plotted and quantified.

[1] = IAM chromatography, chromatographic hydrophobicity index; assay type: physicochemical; details: pH 7.4 mobile phase
Description: Before determining neosubstrate degradation, an obvious effect of fluorination was experimentally specified in this study, i.e., the alteration of lipophilicity. Distribution coefficients at pH 7.4 were determined by an HPLC-based method.[14] As expected, the lipophilicity (elogD7.4) increased due to the introduction of fluorine, and elogD differences were in the range of 0.8 to 1.2 (Table 1). […] The exchange of the glutarimide in 1, 2, 5, and 6 by the barbituric acid unit in 3, 4, 7, and 8 increased lipophilicity by elogD differences of 1.3 to 1.7. Drug-membrane interactions were assessed by a high-throughput HPLC method on an Immobilized Artificial Membrane (IAM) column consisting of monolayers of phospholipids covalently bound to silica particles.[15]
[16] IAM chromatography was performed with a Regis IAM.PC.DD2 column (100 × 4.6 mm, 10 μm, 300 Å) equipped with a guard cartridge at 25 °C as described.[14] Mobile phase A was 50 mM NH4OAc, pH 7.4, mobile phase B was MeCN. The retention times were determined with a gradient of 0 to 95% MeCN from 0 to 6 min, which was kept at 95% until 6.5 min, then dropped to 0% from 6.5 to 7 min, and finally kept at 0% until 9 min. The mobile phase flow rate was 1.5 mL/min. A calibration was performed by plotting the retention times of paracetamol, acetanilide, acetophenone, propiophenone, butyrophenone, valerophenone, and octanophenone against their literature CHI values.[15].

[2] = Distribution coefficient at pH 7.4 by HPLC-based method; assay type: physicochemical; details: pH 7.4, estimated by an HPLC-based method; for chromatographic logD: HPLC-based method (chromatographic retention), read-out: elogD7.4
HUVECs [3] = assay: Endothelial cell tube formation assay
HUVECs [4] = assay: CCK-8 cell proliferation assay, HUVEC; assay type: cell-based, human; details: 48 h
Description: (§1) HUVEC cells were cultured as described.[13]
(§2) [19] For the cell proliferation assay, HUVEC (15,000 cells/well) and MM1.S (20,000 cells/well) cells were seeded in a 96-well plate in 50 μL/well and allowed to incubate overnight at 37 °C in 5% CO2. An equal amount of treatment media containing the vehicle (0.5% DMSO), or the test compound was then plated on top of the seeded for 48 hours (HUVEC) or 72 hours (MM1.S). Cell proliferation was evaluated by adding 10 μL of Cell Counting Reagent-8 (CCK-8; Dojindo Laboratories, Rockville, MD) to each well and incubated for 2 hours. Plates were read at absorbance of 450 nm on a microplate reader (SpectraMax iD3, Molecular Devices, San Jose, CA).

HUVECs [5] = details: cited from earlier work; for Tube formation IC50: endothelial cell tube formation assay, n.i. = no inhibition, tested at 10–100 μM without significant antiangiogenic activity
[6] = biological target: human TBD (residues 319–425 of human CRBN); parameters: method as in PMID 33310190; details: affinity to human TBD, n.b. = no significant CRBN binding, cited from earlier work
[7] = Metabolic stability in human liver microsomes
Description: Metabolic stability analyses in human liver microsomes were performed by Pharmacelsus (Saarbrücken, Germany) as described.[14].

[8] = test system: multiple myeloma MM1.S cells; assay: CCK-8 cell proliferation assay, MM1.S; assay type: cell-based; details: 10 μM, 72 h
Description: as §1, §2

[9] = cited from earlier work
[10] = Homo sapiens, HUVEC, 18 h, read-out: Inhibition of tube formation (%)

Sequence of IKZF3 (Q9UKT9 whole entry, the tested form may be a part): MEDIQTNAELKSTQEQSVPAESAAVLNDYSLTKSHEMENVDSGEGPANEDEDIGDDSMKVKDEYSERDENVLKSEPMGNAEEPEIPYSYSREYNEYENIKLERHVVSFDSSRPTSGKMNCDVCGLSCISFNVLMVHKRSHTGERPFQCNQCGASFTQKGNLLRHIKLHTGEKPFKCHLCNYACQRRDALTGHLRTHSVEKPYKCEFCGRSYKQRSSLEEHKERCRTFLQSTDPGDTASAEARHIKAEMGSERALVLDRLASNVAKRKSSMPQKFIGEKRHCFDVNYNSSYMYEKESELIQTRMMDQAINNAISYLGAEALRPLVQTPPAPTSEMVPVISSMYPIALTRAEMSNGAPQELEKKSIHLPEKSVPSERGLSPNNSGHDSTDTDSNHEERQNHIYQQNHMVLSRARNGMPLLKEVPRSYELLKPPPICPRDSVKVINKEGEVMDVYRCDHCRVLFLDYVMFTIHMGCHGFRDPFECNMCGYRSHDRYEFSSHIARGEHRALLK
Sequence of IKZF3 (Q96SW2 whole entry, the tested form may be a part): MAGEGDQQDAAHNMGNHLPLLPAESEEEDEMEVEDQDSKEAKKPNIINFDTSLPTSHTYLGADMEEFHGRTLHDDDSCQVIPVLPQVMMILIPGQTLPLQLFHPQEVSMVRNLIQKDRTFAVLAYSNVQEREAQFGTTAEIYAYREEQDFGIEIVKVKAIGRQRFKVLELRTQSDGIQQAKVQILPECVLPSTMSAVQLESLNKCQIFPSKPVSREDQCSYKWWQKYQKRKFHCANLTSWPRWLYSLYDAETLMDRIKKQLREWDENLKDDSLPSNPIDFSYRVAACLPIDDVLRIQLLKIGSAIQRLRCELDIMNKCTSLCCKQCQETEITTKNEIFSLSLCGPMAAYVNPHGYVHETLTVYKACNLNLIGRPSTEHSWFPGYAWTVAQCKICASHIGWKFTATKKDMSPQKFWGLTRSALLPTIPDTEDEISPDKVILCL
Sequence of IKZF3 (Q16531 whole entry partner, the tested form may be a part): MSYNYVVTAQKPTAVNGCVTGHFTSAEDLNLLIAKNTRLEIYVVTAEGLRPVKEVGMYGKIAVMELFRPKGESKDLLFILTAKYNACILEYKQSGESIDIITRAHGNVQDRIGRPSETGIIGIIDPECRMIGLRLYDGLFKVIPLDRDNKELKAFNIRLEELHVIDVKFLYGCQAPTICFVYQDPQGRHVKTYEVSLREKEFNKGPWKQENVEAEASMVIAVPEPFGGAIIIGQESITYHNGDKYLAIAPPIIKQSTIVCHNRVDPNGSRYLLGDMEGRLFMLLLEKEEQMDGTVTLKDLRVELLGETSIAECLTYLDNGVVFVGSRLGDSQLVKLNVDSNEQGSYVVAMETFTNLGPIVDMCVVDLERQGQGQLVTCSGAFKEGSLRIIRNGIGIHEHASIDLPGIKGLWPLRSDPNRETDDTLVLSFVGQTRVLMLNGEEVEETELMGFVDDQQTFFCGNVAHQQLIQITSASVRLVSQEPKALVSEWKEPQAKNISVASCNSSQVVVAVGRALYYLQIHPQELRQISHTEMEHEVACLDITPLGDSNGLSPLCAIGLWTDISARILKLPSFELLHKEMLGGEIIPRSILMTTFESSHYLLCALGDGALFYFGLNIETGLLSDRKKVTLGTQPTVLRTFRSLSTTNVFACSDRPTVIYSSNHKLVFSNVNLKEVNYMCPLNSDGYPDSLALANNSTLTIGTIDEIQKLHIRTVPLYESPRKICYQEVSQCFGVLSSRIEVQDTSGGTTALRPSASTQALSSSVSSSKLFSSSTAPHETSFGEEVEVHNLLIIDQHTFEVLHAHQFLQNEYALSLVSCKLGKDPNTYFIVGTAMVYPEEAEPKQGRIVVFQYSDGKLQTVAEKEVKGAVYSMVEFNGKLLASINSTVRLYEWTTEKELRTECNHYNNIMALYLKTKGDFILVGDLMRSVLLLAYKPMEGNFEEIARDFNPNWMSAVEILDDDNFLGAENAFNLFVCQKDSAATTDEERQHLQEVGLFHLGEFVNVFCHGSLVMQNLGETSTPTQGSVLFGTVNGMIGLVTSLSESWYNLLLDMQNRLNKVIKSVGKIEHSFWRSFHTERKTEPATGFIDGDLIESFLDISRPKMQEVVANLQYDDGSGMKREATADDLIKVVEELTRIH
Sequence of IKZF3 (Q13619 whole entry partner, the tested form may be a part): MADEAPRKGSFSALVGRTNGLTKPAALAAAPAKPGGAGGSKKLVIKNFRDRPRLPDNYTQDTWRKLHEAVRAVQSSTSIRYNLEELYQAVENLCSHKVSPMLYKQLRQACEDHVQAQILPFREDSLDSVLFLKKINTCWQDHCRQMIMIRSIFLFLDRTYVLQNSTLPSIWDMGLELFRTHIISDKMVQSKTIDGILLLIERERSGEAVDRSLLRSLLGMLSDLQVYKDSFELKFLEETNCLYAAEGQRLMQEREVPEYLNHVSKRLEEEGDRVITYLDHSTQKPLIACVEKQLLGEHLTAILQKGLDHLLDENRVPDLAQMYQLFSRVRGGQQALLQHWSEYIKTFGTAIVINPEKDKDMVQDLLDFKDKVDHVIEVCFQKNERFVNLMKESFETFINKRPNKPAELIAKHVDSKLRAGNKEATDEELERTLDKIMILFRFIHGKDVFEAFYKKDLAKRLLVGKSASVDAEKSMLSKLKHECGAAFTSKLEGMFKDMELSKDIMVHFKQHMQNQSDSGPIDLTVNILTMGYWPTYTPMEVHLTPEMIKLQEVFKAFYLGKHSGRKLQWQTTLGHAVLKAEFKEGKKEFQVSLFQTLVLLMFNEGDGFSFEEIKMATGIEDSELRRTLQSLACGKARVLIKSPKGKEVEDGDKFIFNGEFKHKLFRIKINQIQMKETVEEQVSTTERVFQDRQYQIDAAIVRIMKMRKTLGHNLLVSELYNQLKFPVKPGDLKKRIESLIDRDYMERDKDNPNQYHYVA
Sequence of IKZF3 (P62877 whole entry partner, the tested form may be a part): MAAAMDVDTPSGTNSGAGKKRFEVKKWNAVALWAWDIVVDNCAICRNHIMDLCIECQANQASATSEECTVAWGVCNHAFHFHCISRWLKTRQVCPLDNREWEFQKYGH
Sequence of SALL4 (Q9UJQ4 whole entry): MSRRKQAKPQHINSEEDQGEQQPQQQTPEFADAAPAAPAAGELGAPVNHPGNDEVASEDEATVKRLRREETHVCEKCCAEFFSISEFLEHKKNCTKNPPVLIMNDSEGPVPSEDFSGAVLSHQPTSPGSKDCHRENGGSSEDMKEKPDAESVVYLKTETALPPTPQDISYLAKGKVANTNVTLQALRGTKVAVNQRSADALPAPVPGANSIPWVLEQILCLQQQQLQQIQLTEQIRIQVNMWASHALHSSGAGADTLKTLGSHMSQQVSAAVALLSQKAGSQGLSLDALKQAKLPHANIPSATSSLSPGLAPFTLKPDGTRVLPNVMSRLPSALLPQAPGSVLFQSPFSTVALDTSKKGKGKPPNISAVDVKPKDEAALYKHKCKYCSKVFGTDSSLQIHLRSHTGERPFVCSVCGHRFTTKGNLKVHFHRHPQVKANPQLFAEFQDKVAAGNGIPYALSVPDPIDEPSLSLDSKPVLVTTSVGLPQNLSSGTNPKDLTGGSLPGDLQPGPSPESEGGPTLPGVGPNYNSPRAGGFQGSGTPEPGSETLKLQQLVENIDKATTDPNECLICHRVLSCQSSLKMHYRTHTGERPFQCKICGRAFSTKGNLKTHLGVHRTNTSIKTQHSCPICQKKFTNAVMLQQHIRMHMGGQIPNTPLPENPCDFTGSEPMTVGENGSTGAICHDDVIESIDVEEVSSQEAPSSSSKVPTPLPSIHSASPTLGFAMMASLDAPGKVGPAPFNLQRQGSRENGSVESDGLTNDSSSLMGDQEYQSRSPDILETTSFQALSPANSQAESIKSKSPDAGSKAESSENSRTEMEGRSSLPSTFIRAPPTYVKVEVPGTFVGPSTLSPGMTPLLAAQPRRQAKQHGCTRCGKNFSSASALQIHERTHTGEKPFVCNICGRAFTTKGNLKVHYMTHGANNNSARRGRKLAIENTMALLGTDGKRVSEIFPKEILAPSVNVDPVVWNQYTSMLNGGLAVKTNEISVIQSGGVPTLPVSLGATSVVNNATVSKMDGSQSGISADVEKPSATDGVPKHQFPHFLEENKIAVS
Sequence of SALL4 (Q96SW2 whole entry): as the sequence (Q96SW2 whole entry, the tested form may be a part) above
Sequence of SALL4 (Q16531 whole entry partner): as the sequence (Q16531 whole entry partner, the tested form may be a part) above
Sequence of SALL4 (Q13619 whole entry partner): as the sequence (Q13619 whole entry partner, the tested form may be a part) above
Sequence of SALL4 (P62877 whole entry partner): as the sequence (P62877 whole entry partner, the tested form may be a part) above
Sequence of IKZF3-GFP fusion protein (Q9UKT9 146-168 limits assumed): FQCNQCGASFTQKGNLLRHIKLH
Sequence of IKZF3-GFP fusion protein (Q96SW2 whole entry, the tested form may be a part): as the sequence (Q96SW2 whole entry, the tested form may be a part) above
Sequence of IKZF3-GFP fusion protein (Q16531 whole entry partner, the tested form may be a part): as the sequence (Q16531 whole entry partner, the tested form may be a part) above
Sequence of IKZF3-GFP fusion protein (Q13619 whole entry partner, the tested form may be a part): as the sequence (Q13619 whole entry partner, the tested form may be a part) above
Sequence of IKZF3-GFP fusion protein (P62877 whole entry partner, the tested form may be a part): as the sequence (P62877 whole entry partner, the tested form may be a part) above

Question: What does the source list for `N#Cc1ccc(N2CCN(Cc3ccc(COc4cccc5c4CN([C@H]4CCC(=O)NC4=O)C5=O)cc3)CC2)c(F)c1` [mezigdomide, reference compound]?
Answer: SALL4 degradation (Western blot, in words) (SALL4): degraded IKZF3 and SALL4; IKZF3 degradation (Western blot, in words) (IKZF3): degraded IKZF3 and SALL4; Abundance of IKZF3-GFP (eGFP/mCherry ratio, DMSO-normalized) (IKZF3-GFP fusion protein): induced to a greater extent

Question: With `O=C1CCC(NC(=O)c2ccccc2F)C(=O)N1` (stereo not shown) [Compound 9, N-(2,6-Dioxo-3-piperidyl)-2-fluorobenzamide] as the compound, how does the CHIIAM [1] read?
Answer: The CHIIAM was 5.7.

Question: What about the chromatographic logD [2] of the same compound?
Answer: Its chromatographic logD is -0.1.

Question: And the inhibition at 100 µM (HUVECs [3]; [10])?
Answer: The inhibition at 100 µM was 13.4%.

Question: Which results are given for `O=C1CCC(NC(=O)c2ccc(F)cc2)C(=O)N1` (stereo not shown) [Compound 11, N-(2,6-Dioxo-3-piperidyl)-4-fluorobenzamide]?
Answer: CHIIAM [1]: 10.1; chromatographic logD [2]: 0.1; inhibition at 100 µM (HUVECs [3]; [10]): 17.9%

Question: With `O=C1CCC(NC(=O)c2cc(F)c(F)cc2F)C(=O)N1` (stereo not shown) [Compound 18] as the compound, how does the CHIIAM [1] read?
Answer: Its CHIIAM is 11.0.

Question: And the chromatographic logD [2]?
Answer: The chromatographic logD was 0.6.

Question: And the “Inhibition of tube formation (%)” value (HUVECs [3]; 100 μM, 18 h, HUVECs, relative to vehicle control, n.i. = no inhibition)?
Answer: Its value is “n.i.^d”.

Question: For `O=C1CCC(NC(=O)c2cc(F)cc(F)c2)C(=O)N1` (stereo not shown) [Compound 15], which CHIIAM [1] is on record?
Answer: Its CHIIAM is 12.3.

Question: And the chromatographic logD [2]?
Answer: Its chromatographic logD is 0.6.

Question: And the inhibition at 100 µM (HUVECs [3]; [10])?
Answer: The inhibition at 100 µM was 44.3%.

Question: With `O=C1CCC(N2C(=O)c3ccccc3C2=O)C(=O)N1` (stereo not shown) [Compound 1, thalidomide, reference compound] as the compound, how does the “Effect on HUVEC proliferation” value (HUVECs [4]; 100 μM) read?
Answer: The value was “decreased neither HUVEC proliferation”.

Question: And the CHIIAM [1]?
Answer: Its CHIIAM is 12.5.

Question: What about the “Block of tube formation” value (HUVECs [5]; concentration range 12.5–100 μM) of the same compound?
Answer: The value was “failed to significantly block tube formation”.

Question: And the “Tube formation IC50” value (HUVECs [5])?
Answer: The value was “n.i.^h”.

Question: What about the chromatographic logD [2] of the same compound?
Answer: The chromatographic logD was 0.5.

Question: What about the Ki ([6]; read-out: MST Ki) of the same compound?
Answer: The Ki was 8.55 µM.

Question: What does the source list for `CC(C)N1C(=O)NC(=O)C(C)(N2C(=O)c3c(F)c(F)c(F)c(F)c3C2=O)C1=O` (stereo not shown) [Compound 4]?
Answer: Reduction of HUVEC growth (HUVECs [4]; 10 μM): > 95%; Neosubstrate degradation (%) SALL4 (SALL4): <5%; CHIIAM [1]: 31.6; Neosubstrate degradation (%) IKZF3 (IKZF3): <5%; half-life [7]: > 1 h; microsomal CLint at 1 h [7]: 4.6 µL/min/mg; Reduction of MM1.S growth [8]: > 95%; elogD7.4 [2]: 3.0; MST Ki [6]: n.b.

Question: With `CC(C)N1C(=O)NC(=O)C(C)(NC(=O)c2cc(F)c(F)c(F)c2F)C1=O` (stereo not shown) [Compound 8] as the compound, how does the “Neosubstrate degradation (%) SALL4” value (SALL4) read?
Answer: The value was <5%.

Question: What about the CHIIAM [1] of the same compound?
Answer: The CHIIAM was 27.9.

Question: What about the “Neosubstrate degradation (%) IKZF3” value (IKZF3) of the same compound?
Answer: The value was <5%.

Question: And the “Tube formation IC50” value (HUVECs [5])?
Answer: Its value is “n.i”.

Question: And the chromatographic logD [2]?
Answer: The chromatographic logD was 2.2.

Question: And the “MST Ki” value [6]?
Answer: Its value is “n.b”.

Question: Which results are given for `O=C1CCC(NC(=O)c2cccc(F)c2F)C(=O)N1` (stereo not shown) [Compound 12]?
Answer: CHIIAM [1]: 7.6; chromatographic logD [2]: 0.3; inhibition at 100 µM (HUVECs [3]; [10]): 31.1%

Question: With `O=C1CCC(NC(=O)c2ccccc2)C(=O)N1` (stereo not shown) [Compound 5] as the compound, how does the elogD7.4 ([9]; pH 7.4) read?
Answer: Its elogD7.4 is −0.3^j.

Question: With `CC(C)N1C(=O)NC(=O)C(C)(N2C(=O)c3ccccc3C2=O)C1=O` (stereo not shown) [Compound 3] as the compound, how does the “Effect on HUVEC cell growth” value (HUVECs [4]; 10 μM) read?
Answer: The value was “did not affect HUVEC or MM1.S cell growth”.

Question: What about the “Neosubstrate degradation (%) SALL4” value (SALL4) of the same compound?
Answer: The value was <5%.

Question: What about the CHIIAM [1] of the same compound?
Answer: The CHIIAM was 28.9.

Question: What about the “Neosubstrate degradation (%) IKZF3” value (IKZF3) of the same compound?
Answer: The value was 11%.

Question: What about the “Tube formation IC50” value (HUVECs [5]) of the same compound?
Answer: The value was “n.i”.

Question: And the half-life [7]?
Answer: The half-life was > 1 h.

Question: What about the microsomal CLint at 1 h [7] of the same compound?
Answer: The microsomal CLint at 1 h was 10.3 µL/min/mg.

Question: And the “Effect on MM1.S cell growth” value [8]?
Answer: Its value is “did not affect HUVEC or MM1.S cell growth”.

Question: What about the chromatographic logD [2] of the same compound?
Answer: Its chromatographic logD is 2.2.

Question: And the “MST Ki” value [6]?
Answer: Its value is “n.b.^i”.

Question: With `O=C1CCC(NC(=O)c2ccc(F)cc2F)C(=O)N1` (stereo not shown) [Compound 13] as the compound, how does the CHIIAM [1] read?
Answer: Its CHIIAM is 7.2.

Question: What about the chromatographic logD [2] of the same compound?
Answer: The chromatographic logD was 0.3.

Question: And the inhibition at 100 µM (HUVECs [3]; [10])?
Answer: The inhibition at 100 µM was 35.8%.

Question: For `O=C1CCC(NC(=O)c2cc(F)ccc2F)C(=O)N1` (stereo not shown) [Compound 14], which CHIIAM [1] is on record?
Answer: The CHIIAM was 7.2.

Question: And the chromatographic logD [2]?
Answer: The chromatographic logD was 0.3.

Question: And the inhibition at 100 µM (HUVECs [3]; [10])?
Answer: The inhibition at 100 µM was 24.2%.

Question: Which results are given for `Nc1cccc2c1C(=O)N(C1CCC(=O)NC1=O)C2=O` (stereo not shown) [pomalidomide, reference compound]?
Answer: SALL4 degradation (Western blot, in words) (SALL4): degraded IKZF3 and SALL4; IKZF3 degradation (Western blot, in words) (IKZF3): degraded IKZF3 and SALL4; Abundance of IKZF3-GFP (eGFP/mCherry ratio, DMSO-normalized) (IKZF3-GFP fusion protein): induced to a greater extent

Question: What does the source list for `O=C1CCC(N2C(=O)c3c(F)c(F)c(F)c(F)c3C2=O)C(=O)N1` (stereo not shown) [Compound 2, Tetrafluoro-thalidomide]?
Answer: Reduction of HUVEC growth (HUVECs [4]; 10 μM): 48%; Neosubstrate degradation (%) SALL4 (SALL4): <5%; CHIIAM [1]: 17.8; Neosubstrate degradation (%) IKZF3 (IKZF3): <5%; Reduction of MM1.S growth [8]: 95%; Antiangiogenic activity in the tube formation assay (HUVECs [3]; 10 μM, HUVECs): significantly inhibited tubule formation; inhibition at 10 µM (HUVECs [3]; [10]): 95.3%

Question: Which CHIIAM [1] does the source give for `O=C1CCC(NC(=O)c2ccc(F)c(F)c2)C(=O)N1` (stereo not shown) [Compound 16] here?
Answer: Its CHIIAM is 13.6.

Question: What about the chromatographic logD [2] of the same compound?
Answer: Its chromatographic logD is 0.6.

Question: What about the inhibition at 100 µM (HUVECs [3]; [10]) of the same compound?
Answer: The inhibition at 100 µM was 15.5%.

Question: Which results are given for `O=C1CCC(NC(=O)c2cc(F)c(F)c(F)c2)C(=O)N1` (stereo not shown) [Compound 19]?
Answer: CHIIAM [1]: 17.9; chromatographic logD [2]: 1; inhibition at 100 µM (HUVECs [3]; [10]): 8.1%

Question: For `O=C1CCC(NC(=O)c2cc(F)c(F)c(F)c2F)C(=O)N1` (stereo not shown) [Compound 6], which elogD7.4 ([9]; pH 7.4, HPLC-based method) is on record?
Answer: Its elogD7.4 is 0.9^j.

Question: For `CC(C)N1C(=O)NC(=O)C(C)(NC(=O)c2ccccc2)C1=O` (stereo not shown) [Compound 7], which “Neosubstrate degradation (%) SALL4” value (SALL4) is on record?
Answer: Its value is <5%.

Question: And the CHIIAM [1]?
Answer: The CHIIAM was 20.9.

Question: And the “Neosubstrate degradation (%) IKZF3” value (IKZF3)?
Answer: The value was <5%.

Question: What about the “Tube formation IC50” value (HUVECs [5]) of the same compound?
Answer: The value was “n.i”.

Question: And the chromatographic logD [2]?
Answer: The chromatographic logD was 1.2.

Question: What about the “MST Ki” value [6] of the same compound?
Answer: Its value is “n.b”.

Question: For `O=C1CCC(NC(=O)c2ccc(F)c(F)c2F)C(=O)N1` (stereo not shown) [Compound 17], which CHIIAM [1] is on record?
Answer: Its CHIIAM is 12.2.

Question: What about the chromatographic logD [2] of the same compound?
Answer: The chromatographic logD was 0.7.

Question: What about the inhibition at 100 µM (HUVECs [3]; [10]) of the same compound?
Answer: The inhibition at 100 µM was 30.3%.

Question: What does the source list for `O=C1CCC(NC(=O)c2cccc(F)c2)C(=O)N1` (stereo not shown) [Compound 10, N-(2,6-Dioxo-3-piperidyl)-3-fluorobenzamide]?
Answer: CHIIAM [1]: 10.6; chromatographic logD [2]: 0.1; inhibition at 100 µM (HUVECs [3]; [10]): 10.3%
